As usually defined, the EC50 is the concentration giving half of the maximal effect.

The source of these data is patent US9388126B2, “Sigma receptor ligands and methods of modulating cellular protein homeostasis using same” (Drexel University, priority 2012, dated 2016).

Common to all, as to format: cell-based, human
Assay [1] has as its system MDA-MB-468 breast adenocarcinoma cells. Nature of the assay: LC3 lipidation (LC3II) immunoblot. Particulars: 24 hours. The protocol: Cells were lysed and proteins extracted in a modified RIPA buffer (25 mM Tris-HCl pH 7.6, 150 mM NaCl, 1% NP-40, 1% sodium deoxycholate and 0.1% SDS) supplemented with 10% glycerol (volume/volume), complete protease inhibitor cocktail (Roche), and Halt phosphatase inhibitor cocktail (Pierce). Approximately 10-20 μg of detergent soluble protein were resolved on NOVEX 10-20% polyacrylamide Tris-glycine gels (InVitrogen). Immunoblots were performed in a 20 mM Tris-buffered 137 mM saline solution (pH 7.6) containing 0.1% Tween-20 (polyoxyethylene (20) sorbitan monolaurate) and 5% (weight/volume) blotting grade non-fat dry milk (BioRad). The Lumigen PS-3 enhanced chemiluminescence kit (GE Healthcare) was used to reveal immunoblotted proteins.
Initially, an established immunoblot-based assay to detect microtubule associated protein light chain 3 (LC3) lipidation was used to test for the activation of autophagy. […] Since transient transfections can produce spurious GFP-LC3 aggregates, stable GFP-LC3 transfected populations of MDA-MB-468 (GFP-LC3) were generated. These cells were treated for 24 hours with increasing concentrations of Sigma receptor antagonists and agonists, and were compared to basal and DMSO treated controls (FIGS. 4B & 4C).

The subject of assay [2] is T47D and MDA-MB-468 cells. Nature of the assay: Cell cycle profile (G1, S, G2 phase cells). Particulars: 24 hours; IPAG 1 μM (T47D) or 10 μM (MDA-MB-468); (+)-SKF-10047 10 μM. As to the method:
FIG. 30, comprising FIGS. 30A-30B, illustrates that Sigma1 antagonists mediate cell cycle arrest. […] FIG. 30A is a graph illustrating the percentage of G1, S, and G2 phase cells in T47D cells treated for 24 hours with DMSO (vehicle control), 1 μM IPAG (Sigma1 antagonist), or 10 μM (+)SKF-10047 (Sigma1 agonist). FIG. 30 B is a graph illustrating the percentage of G1, S, and G2 phase cells in MDA-MB-468 cells treated for 24 hours with DMSO (vehicle control), 10 μM IPAG (Sigma1 antagonist), or 10 μM (+)-SKF-10047 (Sigma1 agonist).

The subject of the next assay is MDA-MB-468 cells. Description: Cell size by flow cytometry (mean FSC-H, G1 phase). To be noted: 10 μM. As to the method: FIG. 11 is a graph illustrating decrease in MDAMB468 cell size associated with the Sigma1 antagonist treatment. MDA-MB-468 cells were treated for 24 hours with DMSO (control), 10 μM IPAG (antagonist), or 10 μM PRE084 (agonist). Cell size was quantitated by flow cytometry, using a Becton Dickinson FACS Calibur flow cytometer with Cell Quest software. The mean forward scatter height (FSC-H) of the G1-phase population was determined as a measure of relative cell size. Single cells were gated away from aggregated cells using an FL2-width versus FL-2 area dot plot. Mean FSC-H±S.E. was calculated from at least 4 independent determinations. For each FSC-H determination, FACS analysis was performed on 10,000 single cells. The mean FSC-H of DMSO (control) and PRE084 treated MDA-MB-468 measured 370±6 and 372±7, respectively, whereas the mean FSC-H of IPAG treated MDA-MB-468 cells was 323±4. ** P<0.01 for IPAG compared to DMSO and IPAG compared to PRE084.
FIG. 31A is a differential interference contrast (DIC) image of MDA-MB-468 breast adenocarcinoma cells treated for ˜20 hours with DMSO (drug vehicle control), 10 μM IPAG (antagonist) or 10 μM PRE084 (agonist). A twenty-micron bar is shown in each image. Data are presented as mean±SEM. FIG. 31B is a graph illustrating the finding that IPAG diminished the mean cell size (FSC-H) of MDA-MB-468 breast tumor cells in a time-responsive manner. The mean FSC-H of 370±5 at to decreased to 323±4 after 24 hours of IPAG treatment and to 267±2 after 48 hours of treatment. Two-tailed t-tests were performed to determine statistical significance. For IPAG treatment compared to control (DMSO) and Sigma agonists (SKF and PRE084), P=0.0002 at d1 and P=0.00013 at d2. Data were generated from three to five independent determinations for each time-point. […] T-47D were treated for 24 h with 1 and 10 μM IPAG, and mean FSC-H was measured. […] For FIGS. 31B-31E, the mean FSC-H was determined for each cell cycle population (i.e., G1, S, G2/M), and data is shown for G1 phase cells. […]
(In general: In flow cytometry, cells or beads pass a laser one at a time.)

Assay [3] deals with MDA-MB-468 breast tumor cells. Description: Akt, S6K and ERK phosphorylation immunoblots. As to the method:
FIG. 40, comprising FIGS. 40A-40C, illustrates Sigma1 antagonist modulation of Akt, S6K, and ERK phosphorylation. MDA-MB-468 breast tumor cells were treated for 24 hours with 10 μM IPAG (Sigma1 antagonist) or (+)SKF-10047 (SKF, Sigma1 agonist). Treated cells were harvested and cellular proteins were extracted with a buffer containing 1% Sodium Dodecyl Sulfate (SDS) and deoxycholate (DOC), supplemented with phosphatase and protease inhibitors. FIG. 40A is an image of an immunoblot illustrating Akt phosphorylation. […] Akt phosphorylation at threonine 308 was not altered in any of the samples (not shown). Equivalent loading was confirmed with an anti-GAPDH antibody. FIG. 40B is an image of an immunoblot illustrating phosphorylation. Phosphorylation of mTOR substrate, p70S6K at threonine 389 decreased 3-fold in IPAG, but not SKF treated cells. Total p70S6K was immunoblotted as a loading control. FIG. 40C is an immunoblot illustrating that p44/42 ERK1/2phosphorylation at threonine 202 and tyrosine 204 was abrogated by 24 hour treatment with IPAG. Data shown is representative of two independent experiments.
In general terms: A western blot detects proteins with antibodies after separation by electrophoresis.

Each structure is given as a SMILES string.

As to `N=C(Nc1ccc(I)cc1)NC1C2CC3CC(C2)CC1C3` (centres unmarked) [IPAG, 1-(4-iodophenyl)-3-(2-adamantyl)guanidine], the “conversion of LC3 to LC3II (autophagosome formation)” value in assay [1] (10 μM) is given as “converted LC3 to LC3II”. Further, in assay [1] (Homo sapiens, MDA-MB-468, two independent determinations, read-out: mean EC50 of LC3 lipid conjugation (LC3II induction)), the EC50 is 7 µM. The cell cycle profile result in assay [2] is “accumulation of breast adenocarcinoma cells in G1 phase of the cell cycle”. For the same compound, the “mean FSC-H (relative cell size)” value in the assay with MDA-MB-468 cells (24 hours) came out at 323±4; in the assay on MDA-MB-468 cells (48 hours), 267±2. For the same compound, the “decrease of Akt phosphorylation at serine 473” value in assay [3] (10 μM, 24 hours) is listed as 3 fold. Also, the “decrease of p70S6K phosphorylation at threonine 389” value in assay [3] (10 μM, 24 hours) is recorded as 3 fold. The “p44/42 ERK1/2 phosphorylation at threonine 202 and tyrosine 204” value in assay [3] (24 hour treatment) is on record as “abrogated”.
